Values joined by “and” are separate entries in the source; they are usually repeats but may differ in a detail not shown here. Identical values can stand only once. Toxic doses and inconclusive results are not listed.
Tested on: BDF1 mice, P388 leukemia ip, median survival T/C
Experiment: NCI In Vivo Anticancer Drug Screen. Data for tumor model P388 Leukemia (intraperitoneal) in B6D2F1 (BDF1) mice
Settings: endpoint: median survival time, higher = longer survival
Method in brief: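 Read-out is survival of treated animals expressed relative to the vehicle group, as a T/C ratio.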

[1] = dose: 25.0 mg/kg/injection, schedule: Q01DX009 (ip), vehicle: saline with Tween-80
[2] = dose: 50.0 mg/kg/injection, schedule: Q01DX009 (ip), vehicle: saline with Tween-80
[3] = dose: 100.0 mg/kg/injection, schedule: Q04DX003 (ip), vehicle: saline with Tween-80
[4] = dose: 200.0 mg/kg/injection, schedule: Q04DX003 (ip), vehicle: saline with Tween-80
[5] = dose: 400.0 mg/kg/injection, schedule: Q04DX003 (ip), vehicle: saline with Tween-80
[6] = dose: 100.0 mg/kg/injection, schedule: Q01DX009 (ip), vehicle: saline with Tween-80
[7] = dose: 200.0 mg/kg/injection, schedule: Q01DX009 (ip), vehicle: saline with Tween-80
[8] = dose: 400.0 mg/kg/injection, schedule: Q01DX009 (ip), vehicle: saline with Tween-80

COc1cccc2c1C(=O)c1c(O)c3c(c(O)c1C2=O)CC(O)(/C(C)=N/Nc1ccc(Cl)cc1)CC3OC1CC(N)C(O)C(C)O1 (configuration not stated)
T/C (dose: 4.08 mg/kg/injection, schedule: Q04DX003 (ip), vehicle: water): 158 % of control | T/C (dose: 6.8 mg/kg/injection, schedule: Q04DX003 (ip), vehicle: water): 157 % of control

NNC(=O)CCc1ccccc1Br
T/C [1]: 100 % of control | T/C [2]: 100 % of control

NC(=O)c1ccc(C(N)=O)cc1
T/C [3]: 100 % of control | T/C [4]: 104 % of control | T/C [5]: 100 % of control

CCCC(C#N)(CCCl)c1ccccc1 (configuration not stated)
T/C [6]: 100 % of control | T/C [7]: 108 % of control | T/C [8]: 112 % of control

Cc1ncc([N+](=O)[O-])n1CCN/C=C/C#N
T/C [3]: 111 % of control | T/C [4]: 123 % of control | T/C [5]: 120 % of control

Cn1nnc2nnc(-c3ccccc3)n21
T/C [6]: 100 % of control | T/C [3]: 100 % of control | T/C [7]: 103 % of control | T/C [4]: 100 % of control | T/C [5]: 95 % of control

O=C(Nc1ccccc1)C1=C(Nc2ccccc2)CSC1
T/C [1]: 100 % of control | T/C (dose: 25.0 mg/kg/injection, schedule: Q04DX003 (ip), vehicle: saline with Tween-80): 99 % of control | T/C [2]: 91 % of control | T/C (dose: 50.0 mg/kg/injection, schedule: Q04DX003 (ip), vehicle: saline with Tween-80): 99 % of control | T/C [6]: 94 % of control | T/C [3]: 96 % of control | T/C [7]: 102 % of control | T/C [4]: 105 % of control | T/C [8]: 110 % of control | T/C [5]: 103 % of control

ClCc1c2ccccc2c(CCl)c2ccccc12
T/C (dose: 0.21 mg/kg/injection, schedule: Q01DX009 (ip), vehicle: saline): 154 % of control | T/C (dose: 0.33 mg/kg/injection, schedule: Q01DX009 (ip), vehicle: saline): 159 % of control and 190 % of control | T/C (dose: 0.49 mg/kg/injection, schedule: Q01DX009 (ip), vehicle: saline): 154 % of control | T/C (dose: 1.3 mg/kg/injection, schedule: Q04DX003 (ip), vehicle: Klucel (hydroxypropylcellulose) (HPC)): 150 % of control | T/C (dose: 1.35 mg/kg/injection, schedule: Q01DX009 (ip), vehicle: saline): 180 % of control | T/C (dose: 1.5 mg/kg/injection, schedule: Q01DX009 (ip), vehicle: Klucel (hydroxypropylcellulose) (HPC)): 153 % of control | T/C (dose: 2.0 mg/kg/injection, schedule: Q04DX003 (ip), vehicle: Klucel (hydroxypropylcellulose) (HPC)): 170 % of control | T/C (dose: 3.0 mg/kg/injection, schedule: Q01DX009 (ip), vehicle: Klucel (hydroxypropylcellulose) (HPC)): 157 % of control and 200 % of control | T/C (dose: 3.0 mg/kg/injection, schedule: Q04DX003 (ip), vehicle: Klucel (hydroxypropylcellulose) (HPC)): 154 % of control and 166 % of control | T/C (dose: 5.0 mg/kg/injection, schedule: Q04DX003 (ip), vehicle: Klucel (hydroxypropylcellulose) (HPC)): 168 % of control | T/C (dose: 6.0 mg/kg/injection, schedule: Q01DX009 (ip), vehicle: Klucel (hydroxypropylcellulose) (HPC)): 105 % of control | T/C (dose: 8.0 mg/kg/injection, schedule: Q04DX003 (ip), vehicle: Klucel (hydroxypropylcellulose) (HPC)): 154 % of control and 172 % of control | T/C (dose: 12.0 mg/kg/injection, schedule: Q04DX003 (ip), vehicle: Klucel (hydroxypropylcellulose) (HPC)): 177 % of control

CC/C=N/NC(N)=S
T/C (dose: 3.13 mg/kg/injection, schedule: Q01DX009 (ip), vehicle: saline with Tween-80): 94 % of control | T/C (dose: 6.25 mg/kg/injection, schedule: Q01DX009 (ip), vehicle: saline with Tween-80): 94 % of control | T/C (dose: 12.5 mg/kg/injection, schedule: Q01DX009 (ip), vehicle: saline with Tween-80): 94 % of control

CN(C)CCCn1c(=O)c2ccccc2c2ccccc21
T/C (dose: 12.5 mg/kg/injection, schedule: Q01DX010 (ip), vehicle: saline): 90 % of control | T/C (dose: 25.0 mg/kg/injection, schedule: Q01DX010 (ip), vehicle: saline): 90 % of control | T/C (dose: 50.0 mg/kg/injection, schedule: Q01DX010 (ip), vehicle: saline): 90 % of control

From PubChem BioAssay AID328 (DTP/NCI, 2004)
